Like-named read-outs stand apart in the source and are kept apart here.
Columns and labels:
Assay in all cases: SelectScreen Kinase Profiling, single point inhibition and IC50 for off-target kinases
Assay type in all cases: biochemical
off-target kinases [1] = target: off-target kinases (Homo sapiens, UniProt P45983); settings: MAPK8 (JNK1)
off-target kinases [2] = target: off-target kinases (Homo sapiens, UniProt Q86Z02); settings: HIPK1 (Myak), ZLYTE, ATP Km app
off-target kinases [3] = target: off-target kinases (Homo sapiens, UniProt Q9UKE5); settings: TNIK, LanthaScreen Binding
off-target kinases [4] = target: off-target kinases (Homo sapiens, UniProt Q9NYL2); settings: ZAK, LanthaScreen Binding
off-target kinases [5] = target: off-target kinases (Homo sapiens, UniProt P08922); settings: ROS1, ZLYTE, ATP Km app
off-target kinases [6] = target: T1, off-target kinases (Homo sapiens, UniProt O14757); settings: CHEK1 (CHK1), ATP Km app, ZLYTE
T1 sequence (O14757 1-476): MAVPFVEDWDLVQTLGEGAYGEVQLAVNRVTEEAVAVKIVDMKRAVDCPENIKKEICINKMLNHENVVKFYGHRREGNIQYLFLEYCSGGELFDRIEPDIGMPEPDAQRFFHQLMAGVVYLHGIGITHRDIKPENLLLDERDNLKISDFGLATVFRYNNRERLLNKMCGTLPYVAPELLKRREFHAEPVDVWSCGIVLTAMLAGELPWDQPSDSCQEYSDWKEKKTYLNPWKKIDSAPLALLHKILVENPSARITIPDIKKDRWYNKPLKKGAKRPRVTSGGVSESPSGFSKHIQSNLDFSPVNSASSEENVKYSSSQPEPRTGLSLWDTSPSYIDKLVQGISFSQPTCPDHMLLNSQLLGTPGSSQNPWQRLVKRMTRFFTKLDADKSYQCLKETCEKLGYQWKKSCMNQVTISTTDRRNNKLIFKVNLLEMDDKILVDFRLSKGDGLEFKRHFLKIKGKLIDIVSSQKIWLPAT

off-target kinases [7] = target: off-target kinases (Homo sapiens, UniProt P43250); settings: GRK6, ZLYTE, ATP Km app

Chain of off-target kinases (Homo sapiens, UniProt Q9UKE5) (Q9UKE5 whole entry): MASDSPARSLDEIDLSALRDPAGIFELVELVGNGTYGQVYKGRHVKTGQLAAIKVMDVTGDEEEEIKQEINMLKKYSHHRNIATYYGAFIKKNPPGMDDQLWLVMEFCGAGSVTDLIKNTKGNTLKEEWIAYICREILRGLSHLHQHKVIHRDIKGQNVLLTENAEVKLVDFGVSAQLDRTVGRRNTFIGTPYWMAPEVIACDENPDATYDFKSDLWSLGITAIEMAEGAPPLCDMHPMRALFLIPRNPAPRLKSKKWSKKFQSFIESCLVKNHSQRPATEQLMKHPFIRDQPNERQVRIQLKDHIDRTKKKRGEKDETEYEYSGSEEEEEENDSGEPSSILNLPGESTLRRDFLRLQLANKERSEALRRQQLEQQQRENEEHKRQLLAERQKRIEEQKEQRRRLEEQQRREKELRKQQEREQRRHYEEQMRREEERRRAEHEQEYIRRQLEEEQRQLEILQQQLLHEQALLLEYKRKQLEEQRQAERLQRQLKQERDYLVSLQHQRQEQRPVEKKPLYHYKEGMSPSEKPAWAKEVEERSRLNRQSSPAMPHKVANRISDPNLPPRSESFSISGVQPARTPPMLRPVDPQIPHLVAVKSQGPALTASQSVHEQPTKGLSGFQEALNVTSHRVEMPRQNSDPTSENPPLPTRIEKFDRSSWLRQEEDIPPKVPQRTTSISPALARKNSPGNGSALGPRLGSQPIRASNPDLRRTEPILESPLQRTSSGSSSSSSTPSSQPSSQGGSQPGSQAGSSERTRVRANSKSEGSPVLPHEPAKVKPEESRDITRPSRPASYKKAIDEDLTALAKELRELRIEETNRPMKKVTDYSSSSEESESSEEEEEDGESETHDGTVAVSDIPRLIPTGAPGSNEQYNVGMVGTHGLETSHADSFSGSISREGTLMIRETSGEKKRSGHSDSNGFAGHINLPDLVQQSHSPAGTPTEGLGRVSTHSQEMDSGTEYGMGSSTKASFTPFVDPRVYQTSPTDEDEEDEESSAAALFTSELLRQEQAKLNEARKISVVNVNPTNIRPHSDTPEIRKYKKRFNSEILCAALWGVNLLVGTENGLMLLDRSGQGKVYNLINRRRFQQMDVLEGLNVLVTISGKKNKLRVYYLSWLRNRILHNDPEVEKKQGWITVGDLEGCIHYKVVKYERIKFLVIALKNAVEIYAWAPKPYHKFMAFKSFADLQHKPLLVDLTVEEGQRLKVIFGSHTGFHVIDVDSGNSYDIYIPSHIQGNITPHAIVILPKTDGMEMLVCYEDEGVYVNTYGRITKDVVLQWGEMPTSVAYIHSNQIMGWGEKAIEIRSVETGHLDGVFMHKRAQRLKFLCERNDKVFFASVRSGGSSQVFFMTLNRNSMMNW
Chain of off-target kinases (Homo sapiens, UniProt Q9NYL2) (Q9NYL2 whole entry): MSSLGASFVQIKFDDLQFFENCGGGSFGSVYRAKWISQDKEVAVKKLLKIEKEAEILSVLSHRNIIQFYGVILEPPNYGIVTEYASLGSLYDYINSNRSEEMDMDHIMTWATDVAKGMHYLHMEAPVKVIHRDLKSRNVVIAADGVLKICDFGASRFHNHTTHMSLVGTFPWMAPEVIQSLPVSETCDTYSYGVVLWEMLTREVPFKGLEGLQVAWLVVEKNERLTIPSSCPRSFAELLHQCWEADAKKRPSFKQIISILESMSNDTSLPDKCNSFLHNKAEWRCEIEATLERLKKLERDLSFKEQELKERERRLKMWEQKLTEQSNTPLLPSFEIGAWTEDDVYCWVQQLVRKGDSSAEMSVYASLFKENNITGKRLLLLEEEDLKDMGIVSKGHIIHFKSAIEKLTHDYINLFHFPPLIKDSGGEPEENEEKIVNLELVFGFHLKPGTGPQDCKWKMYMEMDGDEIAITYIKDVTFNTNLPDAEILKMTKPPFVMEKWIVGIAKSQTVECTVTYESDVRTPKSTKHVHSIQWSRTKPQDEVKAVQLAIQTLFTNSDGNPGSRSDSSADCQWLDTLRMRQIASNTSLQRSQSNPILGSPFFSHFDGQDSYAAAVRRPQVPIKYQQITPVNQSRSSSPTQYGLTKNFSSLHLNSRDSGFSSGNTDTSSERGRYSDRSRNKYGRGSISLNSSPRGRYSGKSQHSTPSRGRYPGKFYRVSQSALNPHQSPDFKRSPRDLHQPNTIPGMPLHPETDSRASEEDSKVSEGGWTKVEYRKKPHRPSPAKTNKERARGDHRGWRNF
Chain of off-target kinases (Homo sapiens, UniProt P08922) (P08922 28-2347): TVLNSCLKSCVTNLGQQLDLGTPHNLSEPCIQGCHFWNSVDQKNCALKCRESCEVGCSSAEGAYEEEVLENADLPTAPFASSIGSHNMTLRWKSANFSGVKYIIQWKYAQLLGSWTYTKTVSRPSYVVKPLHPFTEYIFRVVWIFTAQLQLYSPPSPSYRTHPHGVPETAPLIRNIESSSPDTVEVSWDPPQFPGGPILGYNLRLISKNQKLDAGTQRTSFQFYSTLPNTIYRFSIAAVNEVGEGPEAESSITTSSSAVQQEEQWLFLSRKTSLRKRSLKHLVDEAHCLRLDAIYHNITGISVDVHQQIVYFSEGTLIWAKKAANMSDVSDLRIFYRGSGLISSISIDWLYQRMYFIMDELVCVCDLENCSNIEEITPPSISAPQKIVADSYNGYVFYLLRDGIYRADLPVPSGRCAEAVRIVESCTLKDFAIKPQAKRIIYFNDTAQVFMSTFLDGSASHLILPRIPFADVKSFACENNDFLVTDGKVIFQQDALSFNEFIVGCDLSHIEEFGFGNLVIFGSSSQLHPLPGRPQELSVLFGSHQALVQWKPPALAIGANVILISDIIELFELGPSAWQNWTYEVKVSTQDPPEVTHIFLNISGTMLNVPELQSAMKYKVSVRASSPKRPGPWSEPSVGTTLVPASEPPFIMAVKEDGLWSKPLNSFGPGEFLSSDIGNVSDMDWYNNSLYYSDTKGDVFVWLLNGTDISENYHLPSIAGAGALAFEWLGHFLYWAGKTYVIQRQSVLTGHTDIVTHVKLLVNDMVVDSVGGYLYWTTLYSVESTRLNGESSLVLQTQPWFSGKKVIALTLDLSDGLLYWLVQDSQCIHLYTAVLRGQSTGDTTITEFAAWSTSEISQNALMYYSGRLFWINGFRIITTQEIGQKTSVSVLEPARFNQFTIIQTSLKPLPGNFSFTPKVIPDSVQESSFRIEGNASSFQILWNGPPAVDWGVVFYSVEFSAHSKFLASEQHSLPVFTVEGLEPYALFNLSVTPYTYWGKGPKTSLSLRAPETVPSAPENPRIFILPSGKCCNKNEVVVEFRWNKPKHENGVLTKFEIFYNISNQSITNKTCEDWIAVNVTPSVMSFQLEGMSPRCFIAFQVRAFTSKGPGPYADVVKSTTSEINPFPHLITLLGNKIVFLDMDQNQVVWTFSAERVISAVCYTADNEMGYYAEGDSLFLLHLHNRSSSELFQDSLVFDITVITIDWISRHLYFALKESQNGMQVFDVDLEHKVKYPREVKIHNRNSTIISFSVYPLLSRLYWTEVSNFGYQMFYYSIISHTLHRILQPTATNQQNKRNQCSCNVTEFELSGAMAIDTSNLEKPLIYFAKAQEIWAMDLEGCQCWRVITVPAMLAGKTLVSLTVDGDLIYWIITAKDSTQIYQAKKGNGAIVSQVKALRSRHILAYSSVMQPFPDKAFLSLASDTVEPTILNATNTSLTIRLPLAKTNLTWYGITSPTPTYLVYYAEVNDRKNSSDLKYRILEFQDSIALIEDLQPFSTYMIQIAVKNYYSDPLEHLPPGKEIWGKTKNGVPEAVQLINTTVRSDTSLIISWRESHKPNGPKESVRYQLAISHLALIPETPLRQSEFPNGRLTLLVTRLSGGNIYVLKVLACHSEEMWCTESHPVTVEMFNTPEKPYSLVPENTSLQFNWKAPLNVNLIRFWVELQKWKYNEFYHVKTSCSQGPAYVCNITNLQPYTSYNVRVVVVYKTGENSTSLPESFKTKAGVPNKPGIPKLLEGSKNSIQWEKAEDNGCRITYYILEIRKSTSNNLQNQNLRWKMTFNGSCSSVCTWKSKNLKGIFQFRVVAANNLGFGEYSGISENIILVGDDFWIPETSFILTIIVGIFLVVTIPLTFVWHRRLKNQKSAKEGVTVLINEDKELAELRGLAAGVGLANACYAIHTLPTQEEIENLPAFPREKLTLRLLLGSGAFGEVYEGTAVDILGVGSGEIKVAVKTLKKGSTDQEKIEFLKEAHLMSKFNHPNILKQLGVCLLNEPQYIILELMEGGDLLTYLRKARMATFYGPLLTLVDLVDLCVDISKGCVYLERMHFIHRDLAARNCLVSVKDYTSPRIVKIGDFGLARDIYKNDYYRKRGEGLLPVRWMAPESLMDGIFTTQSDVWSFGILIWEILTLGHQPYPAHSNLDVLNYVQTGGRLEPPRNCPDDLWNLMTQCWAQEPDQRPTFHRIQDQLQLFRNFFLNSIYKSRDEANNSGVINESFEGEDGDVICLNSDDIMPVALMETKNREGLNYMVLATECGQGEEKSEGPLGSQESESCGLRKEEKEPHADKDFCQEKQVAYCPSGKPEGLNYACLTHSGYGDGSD
Chain of off-target kinases (Homo sapiens, UniProt P45983) (P45983 whole entry): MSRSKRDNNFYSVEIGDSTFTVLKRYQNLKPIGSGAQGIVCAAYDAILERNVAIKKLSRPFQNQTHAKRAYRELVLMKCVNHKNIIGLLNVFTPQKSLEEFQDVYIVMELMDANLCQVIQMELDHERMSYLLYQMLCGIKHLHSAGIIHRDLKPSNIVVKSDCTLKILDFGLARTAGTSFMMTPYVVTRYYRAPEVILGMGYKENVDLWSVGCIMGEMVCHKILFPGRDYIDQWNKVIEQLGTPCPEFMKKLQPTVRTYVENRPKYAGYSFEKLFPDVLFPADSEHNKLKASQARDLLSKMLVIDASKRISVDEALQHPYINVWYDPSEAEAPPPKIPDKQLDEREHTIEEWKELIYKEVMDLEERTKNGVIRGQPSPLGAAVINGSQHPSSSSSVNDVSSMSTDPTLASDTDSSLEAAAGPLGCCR

For `N#Cc1cc(-c2ncnc(Nc3ccc(N4CCN(C5COC5)CC4)cc3)n2)ccc1OC1CCOCC1` [Compound 1, 5-(4-((4-(4-(oxetan-3-yl)piperazin-1-yl)phenyl)amino)-1,3,5-triazin-2-yl)-2-((tetrahydro-2H-pyran-4-yl)oxy)benzonitrile], the inhibition (off-target kinases [1]; LanthaScreen Binding, read-out: % Inhibition 1) was 57%, the inhibition (off-target kinases [1]; LanthaScreen Binding, read-out: % Inhibition 2) was 56% and the inhibition (off-target kinases [1]; LanthaScreen Binding, read-out: % Inhibition Avg) was 57%. It also gave an inhibition (off-target kinases [1]; ZLYTE, ATP 100, read-out: % Inhibition 1) of 33%, an inhibition (off-target kinases [1]; ZLYTE, ATP 100, read-out: % Inhibition 2) of 18% and an inhibition (off-target kinases [1]; ZLYTE, ATP 100, read-out: % Inhibition Avg) of 25%. The inhibition (off-target kinases [2]; read-out: % Inhibition 1) was 11%, the inhibition (off-target kinases [2]; read-out: % Inhibition 2) was 13% and the inhibition (off-target kinases [2]; read-out: % Inhibition Avg) was 12%. It also gave an inhibition (off-target kinases [3]; read-out: % Inhibition 1) of 46%, an inhibition (off-target kinases [3]; read-out: % Inhibition 2) of 43% and an inhibition (off-target kinases [3]; read-out: % Inhibition Avg) of 45%. The inhibition (off-target kinases [4]; read-out: % Inhibition 1) was 6%, the inhibition (off-target kinases [4]; read-out: % Inhibition 2) was 10% and the inhibition (off-target kinases [4]; read-out: % Inhibition Avg) was 8%. It also gave an inhibition (off-target kinases [5]; read-out: % Inhibition 1) of 30%, an inhibition (off-target kinases [5]; read-out: % Inhibition 2) of 26% and an inhibition (off-target kinases [5]; read-out: % Inhibition Avg) of 28%. The inhibition (off-target kinases [6]; read-out: % Inhibition 1) was 78%, the inhibition (off-target kinases [6]; read-out: % Inhibition 2) was 78% and the inhibition (off-target kinases [6]; read-out: % Inhibition Avg) was 78%. The inhibition (off-target kinases [7]; read-out: % Inhibition 1) was 2%, the inhibition (off-target kinases [7]; read-out: % Inhibition 2) was 2% and the inhibition (off-target kinases [7]; read-out: % Inhibition Avg) was 2%.

Source: patent US11572590B2, “Methods for evaluating tumor cell spheroids using 3D microfluidic cell culture device” (Dana-Farber Cancer Institute, Inc., priority 2017, dated 2023)
